Columns and labels:
AdeFGH (AdeG) = target: T1, AdeFGH (AdeG) (Acinetobacter baumannii, UniProt A0A090C131); test: antibiotic MIC in E. coli ΔacrAB expressing adeFGH (REMA); assay type: cell-based, Escherichia coli ΔacrAB; settings: 40 µM EPI; chloramphenicol, oxacillin, SDS
T1 construct: adeFGH operon under acrA promoter in chromosome of E. coli ΔacrAB; tripartite RND pump; with Membrane fusion protein AdeF; Outer membrane efflux protein AdeH

AdeIJK (AdeJ) = target: T2, AdeIJK (AdeJ) (Acinetobacter baumannii, UniProt Q2FD94); test: antibiotic MIC in E. coli ΔacrAB expressing adeIJK (REMA); assay type: cell-based, Escherichia coli; settings: 40 µM EPI; fusidic acid, novobiocin, erythromycin, SDS
T2 construct: adeIJK operon under acrA promoter in chromosome of E. coli ΔacrAB; tripartite RND pump; with Membrane fusion protein AdeI; Outer membrane efflux protein AdeK

AdeJ = target: T3, AdeJ (Acinetobacter baumannii, UniProt Q2FD94); test: antibiotic MIC and checkerboard in A. baumannii cells; assay type: cell-based; settings: 40 µM EPI
T3 construct: native chromosomal AdeJ in A. baumannii cells (other RND pumps present); isogenic point mutants by allelic exchange; with Membrane fusion protein AdeI; Outer membrane efflux protein AdeK
T3 sequence (Q24LT6 entry or part of it): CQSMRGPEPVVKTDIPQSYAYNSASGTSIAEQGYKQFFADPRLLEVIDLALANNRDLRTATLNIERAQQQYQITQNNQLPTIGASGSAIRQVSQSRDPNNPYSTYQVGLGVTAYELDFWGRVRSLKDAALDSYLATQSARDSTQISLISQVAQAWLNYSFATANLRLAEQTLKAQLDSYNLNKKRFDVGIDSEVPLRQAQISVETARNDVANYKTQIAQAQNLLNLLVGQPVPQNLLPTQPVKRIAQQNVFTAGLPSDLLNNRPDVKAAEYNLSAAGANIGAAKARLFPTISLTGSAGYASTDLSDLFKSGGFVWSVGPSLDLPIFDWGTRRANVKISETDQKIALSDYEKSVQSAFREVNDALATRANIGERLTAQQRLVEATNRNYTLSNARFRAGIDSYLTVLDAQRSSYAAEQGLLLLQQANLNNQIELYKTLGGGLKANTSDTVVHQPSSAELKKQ
T3 sequence (Q2FD94 entry or part of it): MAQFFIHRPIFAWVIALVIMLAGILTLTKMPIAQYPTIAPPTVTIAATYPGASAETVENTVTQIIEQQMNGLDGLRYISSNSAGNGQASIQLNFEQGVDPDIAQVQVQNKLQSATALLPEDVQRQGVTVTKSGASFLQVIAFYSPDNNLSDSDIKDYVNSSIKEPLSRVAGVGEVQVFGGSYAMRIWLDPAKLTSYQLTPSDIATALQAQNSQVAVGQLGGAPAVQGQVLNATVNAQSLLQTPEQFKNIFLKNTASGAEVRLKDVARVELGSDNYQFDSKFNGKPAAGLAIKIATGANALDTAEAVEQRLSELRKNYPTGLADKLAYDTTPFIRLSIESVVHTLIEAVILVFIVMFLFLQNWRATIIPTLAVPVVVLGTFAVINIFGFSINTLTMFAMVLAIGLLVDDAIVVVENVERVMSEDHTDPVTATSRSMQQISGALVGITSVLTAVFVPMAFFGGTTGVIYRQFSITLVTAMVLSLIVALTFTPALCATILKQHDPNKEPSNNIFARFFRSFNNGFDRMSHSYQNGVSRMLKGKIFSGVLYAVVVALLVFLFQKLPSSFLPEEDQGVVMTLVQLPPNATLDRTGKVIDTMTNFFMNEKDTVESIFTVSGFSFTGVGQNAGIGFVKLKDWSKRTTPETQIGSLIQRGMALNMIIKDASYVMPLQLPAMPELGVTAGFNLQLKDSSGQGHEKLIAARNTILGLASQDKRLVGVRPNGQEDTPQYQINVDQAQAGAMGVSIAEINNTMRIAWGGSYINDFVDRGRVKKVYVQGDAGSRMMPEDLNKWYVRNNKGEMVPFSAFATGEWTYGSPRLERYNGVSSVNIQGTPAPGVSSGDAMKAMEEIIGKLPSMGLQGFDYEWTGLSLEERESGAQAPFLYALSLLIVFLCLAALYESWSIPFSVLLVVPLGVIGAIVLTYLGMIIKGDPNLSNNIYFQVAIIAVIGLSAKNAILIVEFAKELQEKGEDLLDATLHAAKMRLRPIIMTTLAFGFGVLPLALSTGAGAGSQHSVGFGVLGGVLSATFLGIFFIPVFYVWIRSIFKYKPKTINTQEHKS
T3 sequence (Q2FD95 entry or part of it, further chain): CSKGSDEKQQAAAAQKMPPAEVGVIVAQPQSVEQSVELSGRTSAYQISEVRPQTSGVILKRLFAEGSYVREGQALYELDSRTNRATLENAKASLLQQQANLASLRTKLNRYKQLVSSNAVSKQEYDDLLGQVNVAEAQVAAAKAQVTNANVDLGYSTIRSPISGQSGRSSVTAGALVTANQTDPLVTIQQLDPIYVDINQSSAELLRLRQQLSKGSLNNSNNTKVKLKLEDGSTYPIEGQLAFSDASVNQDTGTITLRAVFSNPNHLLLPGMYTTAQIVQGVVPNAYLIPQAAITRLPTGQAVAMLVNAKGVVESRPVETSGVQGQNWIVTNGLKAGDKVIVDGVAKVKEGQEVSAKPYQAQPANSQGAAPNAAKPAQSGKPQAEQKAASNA

AcrB (AcrAB-TolC) = target: T4, AcrB (AcrAB-TolC) (Escherichia coli, UniProt P31224); test: antibiotic boosting in E. coli cells; assay type: cell-based
T4 construct: full-length RND pump in E. coli cells; strain only in supplement; with Multidrug efflux pump subunit AcrA; Outer membrane protein TolC
T4 sequence (P0AE06 25-397): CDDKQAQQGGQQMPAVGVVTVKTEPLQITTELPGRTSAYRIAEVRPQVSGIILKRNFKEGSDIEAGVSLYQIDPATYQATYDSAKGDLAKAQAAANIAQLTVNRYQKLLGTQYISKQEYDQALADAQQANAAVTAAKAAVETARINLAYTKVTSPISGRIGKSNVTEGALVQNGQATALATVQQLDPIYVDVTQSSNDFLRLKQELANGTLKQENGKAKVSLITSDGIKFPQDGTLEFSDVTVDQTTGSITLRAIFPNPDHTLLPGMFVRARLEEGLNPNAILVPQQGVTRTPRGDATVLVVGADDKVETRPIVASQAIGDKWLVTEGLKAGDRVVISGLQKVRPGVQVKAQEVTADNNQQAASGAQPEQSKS
T4 sequence (P02930 23-493, further chain): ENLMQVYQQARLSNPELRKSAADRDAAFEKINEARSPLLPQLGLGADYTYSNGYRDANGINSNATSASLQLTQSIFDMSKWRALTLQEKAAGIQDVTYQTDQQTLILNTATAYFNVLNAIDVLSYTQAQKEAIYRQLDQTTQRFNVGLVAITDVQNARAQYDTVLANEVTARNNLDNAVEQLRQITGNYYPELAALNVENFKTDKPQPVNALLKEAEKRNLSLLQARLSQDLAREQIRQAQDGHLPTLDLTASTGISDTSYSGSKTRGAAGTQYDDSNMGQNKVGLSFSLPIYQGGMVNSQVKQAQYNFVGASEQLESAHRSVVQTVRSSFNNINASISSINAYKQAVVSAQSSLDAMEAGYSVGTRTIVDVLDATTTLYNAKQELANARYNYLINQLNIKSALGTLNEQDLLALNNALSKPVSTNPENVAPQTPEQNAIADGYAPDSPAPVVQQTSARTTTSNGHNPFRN
T4 sequence (P31224 whole entry): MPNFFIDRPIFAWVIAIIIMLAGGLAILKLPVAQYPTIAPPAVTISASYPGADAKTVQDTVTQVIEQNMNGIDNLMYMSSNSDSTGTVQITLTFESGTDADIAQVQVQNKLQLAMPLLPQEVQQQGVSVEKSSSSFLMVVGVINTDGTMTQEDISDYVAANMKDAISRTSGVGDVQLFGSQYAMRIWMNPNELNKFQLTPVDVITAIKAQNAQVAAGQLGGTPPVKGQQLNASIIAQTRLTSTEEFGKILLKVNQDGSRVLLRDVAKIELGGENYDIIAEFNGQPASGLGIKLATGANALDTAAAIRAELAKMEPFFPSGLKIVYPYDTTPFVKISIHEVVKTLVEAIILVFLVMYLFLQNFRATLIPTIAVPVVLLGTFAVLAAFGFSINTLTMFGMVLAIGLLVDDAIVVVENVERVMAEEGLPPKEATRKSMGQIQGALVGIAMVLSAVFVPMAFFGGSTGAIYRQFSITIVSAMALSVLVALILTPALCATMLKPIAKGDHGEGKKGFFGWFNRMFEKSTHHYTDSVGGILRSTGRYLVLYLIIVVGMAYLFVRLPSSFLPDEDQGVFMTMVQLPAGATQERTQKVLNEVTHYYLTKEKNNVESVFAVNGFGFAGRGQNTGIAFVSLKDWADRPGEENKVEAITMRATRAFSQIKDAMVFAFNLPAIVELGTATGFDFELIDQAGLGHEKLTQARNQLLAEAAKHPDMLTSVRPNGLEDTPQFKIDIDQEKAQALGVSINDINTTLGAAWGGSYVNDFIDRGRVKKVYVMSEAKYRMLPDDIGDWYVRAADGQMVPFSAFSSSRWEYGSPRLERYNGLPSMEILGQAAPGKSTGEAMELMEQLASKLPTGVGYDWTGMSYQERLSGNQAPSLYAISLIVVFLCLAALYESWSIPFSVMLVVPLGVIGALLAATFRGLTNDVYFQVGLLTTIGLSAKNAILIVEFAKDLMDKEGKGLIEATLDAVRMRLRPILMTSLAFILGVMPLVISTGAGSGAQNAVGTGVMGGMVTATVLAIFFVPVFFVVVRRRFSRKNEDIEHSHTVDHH

| SMILES | MIC (AdeFGH (AdeG)) | MIC (AdeIJK (AdeJ)) | MIC (AdeJ) | EC90 (AcrB (AcrAB-TolC)) |
| --- | --- | --- | --- | --- |
| NCc1cccc(-c2ccc3nc(N4CCNCC4)c(Cl)cc3c2)c1 [compound 1, BDM91531] | both BDM91531 and BDM91892 can inhibit the activity of AdeFGH and AdeIJK | both BDM91531 and BDM91892 can inhibit the activity of AdeFGH and AdeIJK | antibiotic boosting in A. baumannii by BDM91531, BDM91892 or PAβN is through AdeIJK inhibition | 240 nM |
| NCCc1ccccc1C#Cc1cnc(N2CCNCC2)c(Cl)c1 [compound 11, BDM91892] | both BDM91531 and BDM91892 can inhibit the activity of AdeFGH and AdeIJK | both BDM91531 and BDM91892 can inhibit the activity of AdeFGH and AdeIJK | antibiotic boosting in A. baumannii by BDM91531, BDM91892 or PAβN is through AdeIJK inhibition | 1500 nM |

From PMC10594211, “Characterization of pyridylpiperazine-based efflux pump inhibitors for Acinetobacter baumannii” (JAC-Antimicrobial Resistance, 2023)
